According to patent publication US8106029B2, “Use of A2A adenosine receptor agonists” (Gilead Sciences, Inc., priority 2004, dated 2012):
Values after ≈ are worked out from the molar mass of the structure shown. Read-outs that look alike come from different tables or passages of the source. One block for each molecule: values may come before it.

Legend:
[1] = system: A2A-adenosine receptors; settings: average of the 12 assays
[2] = Solubility in water; type: physicochemical
Method: Therefore, regadenoson can be dissolved and administered in water so long as the desired weight amount of regadenoson can be administered in an acceptable volume. For example, a preferred dose of about 400 micrograms can be administered in 8 mL of water.

[3] = Example 1: population PK after single IV bolus in healthy male subjects; type: in vivo; settings: human
Method: (§1) The purpose of this study was to investigate the pharmacokinetics (PK), pharmacodynamics (PD), and the maximum tolerated dose of regadenoson in healthy human subjects.
(§2) Thirty-six healthy, male subjects were included in the study. […] ECG, blood pressure (BP), and heart rate (HR) were recorded for up to 24 hours post-dose. Adverse events (AE) were monitored for 24 hours post dose and via telephone 7 days later. A population approach was utilized in applying a three-compartmental PK model to the plasma concentration-time and a Michaelis-Menten model to the time-course of heart rate. The potential influence of various covariates on PK and PD model parameters was investigated.

[4] = Example 1: PD model (Michaelis-Menten) of heart rate time-course in healthy male subjects; type: in vivo, human
Method: as §1, §2

[5] = Example 1: tolerability / maximum tolerated dose in healthy male subjects; type: in vivo, human; settings: for MTD at 24 h: male, human, in vivo, intravenous
Method: as §1, §2

[6] = Example 2: population PK in subjects undergoing cardiac catheterization; type: in vivo; settings: both sexes, human, plasma
Method: (§3) The purpose of this study was to investigate the pharmacokinetics (PK) and pharmacodynamics (PD) of regadenoson in subjects undergoing clinically indicated cardiac catheterization.
(§4) Thirty-six male and female subjects undergoing clinically indicated coronary angiography were studied. […] ECG, average coronary peak flow velocity (APV), measured using intracoronary Doppler flow wire, blood pressure (BP), and heart rate (HR) were continuously monitored for up to 3 hours post-dose. Occurrence of adverse events (AEs) was monitored for approximately 3 hours post dosing and via telephone approximately 14 days later. A population approach was utilized in applying PK and PD models to the plasma concentration, APV, and HR data. The potential influence of various covariates on PK and PD model parameters was investigated.

[7] = Example 2: PD model of average coronary peak flow velocity (APV), intracoronary Doppler flow wire; type: in vivo, human
Method: as §3, §4

[8] = Example 2: PD model (Michaelis-Menten) of heart rate; type: in vivo, human; settings: catheterization subjects
Method: as §3, §4

[9] = biological target: T1, A2A-adenosine receptors (Rattus norvegicus, UniProt P30543); assay: Membrane binding, displacement of [3H]-ZM241385, rat brain striatal membranes; settings: Rat striatum, mean ± SE, read-out: Membrane Binding, affinity [Ki]
T1 construct: rat brain striatal membranes; from tissue; host or cells: rat brain striatum membranes
T1 sequence (P30543 whole entry): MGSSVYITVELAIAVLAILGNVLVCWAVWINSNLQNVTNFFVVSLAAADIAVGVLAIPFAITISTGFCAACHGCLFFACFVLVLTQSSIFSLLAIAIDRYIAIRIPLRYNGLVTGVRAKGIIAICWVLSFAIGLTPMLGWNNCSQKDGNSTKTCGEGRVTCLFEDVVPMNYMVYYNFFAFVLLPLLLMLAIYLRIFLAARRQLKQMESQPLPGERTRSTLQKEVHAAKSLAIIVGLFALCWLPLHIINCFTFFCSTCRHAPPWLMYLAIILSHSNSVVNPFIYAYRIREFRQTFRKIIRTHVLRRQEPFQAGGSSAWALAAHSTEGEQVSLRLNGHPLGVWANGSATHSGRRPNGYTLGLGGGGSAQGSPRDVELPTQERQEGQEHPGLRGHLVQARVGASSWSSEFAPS

[10] = biological target: T1, A2A-adenosine receptors; assay: Membrane binding, displacement of [3H]-CG-S21680, rat brain striatal membranes; settings: Rat striatum, mean ± SE, read-out: Membrane Binding, affinity [Ki]
[11] = system: human platelets; assay: Platelet aggregation; type: cell-based; settings: mean ± SE, read-out: Platelet Aggregation, potency
[12] = system: human platelets; assay: Cell calcium mobilization, human platelets; type: cell-based; settings: Platelet, mean ± SE, read-out: Cell calcium Mobilization, potency
[13] = system: human neutrophils; assay: Superoxide anion production, human neutrophils; type: cell-based; settings: Neutrophil, mean ± SE, read-out: Superoxide anion Production, potency

values of EC50 lower than for regadenoson, on average [1]: 13 fold
Structure (SMILES): CCNC(=O)[C@H]1O[C@@H](n2cnc3c(N)nc(NCCc4ccc(CCC(=O)O)cc4)nc32)[C@H](O)[C@@H]1O [CGS 21680]

Structure (SMILES): CNC(=O)c1cnn(-c2nc(N)c3ncn([C@@H]4O[C@H](CO)[C@@H](O)[C@H]4O)c3n2)c1 [regadenoson, (1-{9-[(4S,2R,3R,5R)-3,4-dihydroxy-5-(hydroxymethyl)oxolan-2-yl]-6-aminopurin-2-yl}pyrazol-4-yl)-N-methylcarboxamide]
solubility [2]: ~50 µg/mL (≈ 128 µM)
Vd ([3]; plasma, healthy male subjects, IV bolus, read-out: volume of distribution): 83.3 L
clearance ([3]; plasma, healthy male subjects, single IV bolus 0.1 to 30 μg/kg, three-compartmental model, read-out: population value of clearance (CL) (converted)): 677 mL/min
renal clearance as share of the total clearance ([3]; male, in vivo, iv): 57%
EC50 ([4]; Homo sapiens, read-out: concentration causing half-maximal increase in HR (potency)): 0.0124 µg/mL (≈ 0.0318 µM)
maximal increase in HR ([4]; healthy male subjects, model estimate): 76 bpm
adverse events, severity ([5]; healthy male subjects, IV bolus 0.1 to 30 μg/kg): mild to moderate
MTD at 24 h ([5]; standing, dose-limiting syncope or near syncope, read-out: maximum tolerated dose, standing position): 0.01 mg/kg
MTD at 24 h ([5]; supine, read-out: maximum tolerated dose, supine position): 0.02 mg/kg
dose generally well tolerated, standing patients ([5]; standing): up to 10 μg/kg
dose generally well tolerated, supine patients ([5]; supine): up to 20 μg/kg
Vd ([6]; IV bolus, read-out: volume of distribution): 68.1 L
clearance ([6]; single IV bolus 10 to 500 μg, three-compartment model): 498 mL/min
distribution rate constant from the plasma to the effect site ([7]; APV PD model): 4 min⁻¹
EC50 ([7]; Homo sapiens, catheterization subjects, read-out: potency (concentration that causes half maximal effect) on APV): 0.0299 µg/mL (≈ 0.0766 µM)
maximal increase in APV ([7]; model estimate, effect compartment): 105 cm/s
EC50 ([8]; Homo sapiens, read-out: potency on HR): 0.0275 µg/mL (≈ 0.0704 µM)
maximum increase in the HR ([8]; model estimate): 41 bpm
Ki [9]: 318 ± 5 nM
Ki [10]: 43 ± 3 nM
IC50 [11]: 437 ± 44 nM
IC50 [12]: 108 ± 8 nM
IC50 [13]: 328 ± 32 nM
